This assay deals with T1, SrtA (Staphylococcus aureus, UniProt Q2FV99).
T1 construct: His6 (N); made in house; host or cells: E. coli BL21, pET21b plasmid
The experiment in a line: biochemical. More on the design: species or system S. aureus. As for the experimental part: In order to screen the activity of SrtA inhibitors, a FRET-based functional assay was used which employs an internally quenched fluorescent (IQF) substrate, Abz-LPETGK(Dnp)-NH2 (Fig. S37a ^†).[5] […] 5-((C4-Nitrobenzyl)thio)-1,3,4-thiadiazol-2-amine was used as a reference inhibitor in the experiment.[42] […]
Fluorescence resonance energy transfer assay
For the FRET assay, the compound 5-((4-nitrobenzyl) thio)-1,3,4-thiadiazol-2-amine was used as a reference and prepared by dissolving 3 µL of the available stock (10 mM) in […] HEPES and 1% DMSO to afford a 300 µM stock concentration for the assay. This reference compound […]
FRET assay was performed with an internally quenched fluorogenic (IQF) substrate to determine the inhibitory activity of the synthesized peptidomimetics. The assay was performed in a 30 μl reaction mixture in HEPES buffer (50 mM HEPES, 150 mM NaCl, 5 mM CaCl2, 0.05% Tween20, pH 7.5). SrtA solution (200 nM) was preincubated with compounds (200 μM) for 15 min at 22 °C followed by the addition of the substrate solution (25 μM Abz-LPETGK(Dnp)-NH2, 5 mM H-Gly3-OH, final assay concentration) in the same buffer. The cleavage of the Abz/Dnp-substrate was quantified by an increase in the fluorescence signal.
The fluorescence signal was monitored each minute for 45 minutes and plotted to obtain the fluorescence rate as a line curve. The assay was performed in 384 well Corning NBS microplates (flat bottom, no lid, low flange, non-binding surface, non-sterile, white polystyrene).
Fluorescence intensity was measured at emission and excitation wavelengths of […] using a Spectramax iD5 plate reader (Molecular Devices, San Jose, CA, USA). Triplicate measurements were taken for each data point to ensure the reproducibility of the results. The average value of the fluorescence signal readouts was plotted against time over […] for each compound to produce a line curve using Origin. The reference compound was used in the experiment to act as a positive control. The slope of each compound curve (Sx) and the slope of the substrate (S0) were extracted using the linear fit function in Microsoft Origin 2019. The percent inhibition was calculated according to the following equation: inhibitory rate = (1 – Sx/S 0) × 100%. For IC50 values, Sx values at different concentrations were plotted against log transformed concentration values and fitted with a sigmodial fit using the DoseResp function using Origin. The bottom asymptote of the dose-response curve was fixed at 0. The data were reported as mean ± SE%. […]

T1 sequence (Q2FV99 60-206): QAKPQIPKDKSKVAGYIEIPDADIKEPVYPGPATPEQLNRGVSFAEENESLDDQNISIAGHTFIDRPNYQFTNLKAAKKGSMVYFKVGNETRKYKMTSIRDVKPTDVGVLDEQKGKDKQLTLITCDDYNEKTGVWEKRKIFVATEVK

One may read the IC50 as the concentration at which inhibition is half-maximal. Low values mean greater potency, high ones weaker potency. Usually inhibition stands for the percentage by which the read-out fell short of the control. In turn, H-FLPRDA-NH2 [Compound 22, FLPRDA] had an FRET inhibition (200 nM SrtA, 200 μM inhibitor, HEPES buffer, mean ± SE, triplicate) of 70.1 ± 5.7%. Also, the IC50 (IC50, inhibitor 1 μM to 1500 μM, corrected for molar extinction coefficient) came to 185.3 ± 1.5 µM. The inhibition at 200 µM (read-out: FRET inhibition, 200 nM SrtA, 200 μM inhibitor, HEPES buffer, mean ± SE, triplicate) is 70%.

For the origin of these results see paper PMC10306101, “Substrate-derived Sortase A inhibitors: targeting an essential virulence factor of Gram-positive pathogenic bacteria” (Chemical Science, 2023).
